Test results: ChEMBL document CHEMBL4806967, “Heterocyclic kinase inhibitors and uses thereof” (2020)
Active and inactive are the calls of the source. No cut-off for these calls is given here.

Assays:
[1] = Free drug concentration in mouse at 30 mg/kg, po measured after 2 hrs; assay type: ADME, organism-based; conditions: in vivo
[2] = Free drug concentration in mouse at 30 mg/kg, po measured after 6 hrs; assay type: ADME, organism-based; conditions: in vivo
[3] = Metabolic stability in mouse liver microsomes assessed as intrinsic clearance; assay type: ADME, Microsome
hERG (KCNH2) = hERG (KCNH2) (Homo sapiens, UniProt Q12809); experiment: Inhibition of human ERG expressed in HEK cells at 10 uM by automated electrophysiology assay; assay type: cell-based; conditions: HEK cells that express human ERG
Chain of hERG (KCNH2) (Q12809 whole entry): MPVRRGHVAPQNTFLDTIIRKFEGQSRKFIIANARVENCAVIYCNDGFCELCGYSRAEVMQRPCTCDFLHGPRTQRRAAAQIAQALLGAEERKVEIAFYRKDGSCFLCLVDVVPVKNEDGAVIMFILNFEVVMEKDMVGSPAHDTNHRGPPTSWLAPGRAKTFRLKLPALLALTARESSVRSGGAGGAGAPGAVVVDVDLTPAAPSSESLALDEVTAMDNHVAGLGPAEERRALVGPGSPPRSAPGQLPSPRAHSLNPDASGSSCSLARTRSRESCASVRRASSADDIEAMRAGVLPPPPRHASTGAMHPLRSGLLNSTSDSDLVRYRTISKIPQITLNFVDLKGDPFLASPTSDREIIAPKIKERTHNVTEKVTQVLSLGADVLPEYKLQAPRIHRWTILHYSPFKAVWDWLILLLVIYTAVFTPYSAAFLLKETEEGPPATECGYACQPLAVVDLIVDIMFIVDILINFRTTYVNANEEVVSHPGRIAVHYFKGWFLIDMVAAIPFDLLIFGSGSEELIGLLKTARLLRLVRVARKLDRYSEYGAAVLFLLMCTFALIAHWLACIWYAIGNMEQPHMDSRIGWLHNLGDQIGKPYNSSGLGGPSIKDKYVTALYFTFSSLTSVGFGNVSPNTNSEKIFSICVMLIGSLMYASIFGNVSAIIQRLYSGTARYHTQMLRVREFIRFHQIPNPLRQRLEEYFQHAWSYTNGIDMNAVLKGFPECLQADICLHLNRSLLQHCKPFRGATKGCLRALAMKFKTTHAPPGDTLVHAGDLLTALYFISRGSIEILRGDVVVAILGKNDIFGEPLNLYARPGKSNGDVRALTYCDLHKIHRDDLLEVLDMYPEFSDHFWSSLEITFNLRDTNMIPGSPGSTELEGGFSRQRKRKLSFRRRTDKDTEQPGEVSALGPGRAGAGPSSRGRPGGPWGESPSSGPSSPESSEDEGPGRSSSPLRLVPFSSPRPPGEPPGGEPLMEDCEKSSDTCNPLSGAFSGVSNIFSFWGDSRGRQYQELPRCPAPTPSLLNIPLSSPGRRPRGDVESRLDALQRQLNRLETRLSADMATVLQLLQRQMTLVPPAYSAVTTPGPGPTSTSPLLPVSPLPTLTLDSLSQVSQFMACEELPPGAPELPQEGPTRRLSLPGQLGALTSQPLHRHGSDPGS

K562 = experiment: Anticancer activity against human K562 cells xenografted in SCID mouse assessed as increase in survival at 10 to 30 mg/kg, iv once daily for 5 days; assay type: functional, organism-based; conditions: dose 10-30 mg/kg, time 5.0 day
[4] = Toxicity in C57BI/6N mouse implanted subcutaneously with MC38 cells assessed as body weight loss at 30 to 100 mg/kg, po once daily for 3 weeks; assay type: organism-based, MC-38; conditions: in vivo, dose 30-100 mg/kg
[5] = AUCextrap in CD-1 mouse at 1 mg/kg, iv; assay type: ADME, organism-based; conditions: in vivo
[6] = AUCextrap in CD-1 mouse at 30 mg/kg, po; assay type: ADME, organism-based; conditions: in vivo
[7] = Free drug concentration in mouse at 30 mg/kg, po measured after 7 hrs; assay type: ADME, organism-based; conditions: in vivo
[8] = Free drug concentration in mouse at 30 mg/kg, po measured after 24 hrs; assay type: ADME, organism-based; conditions: in vivo
[9] = Toxicity in C57BL/6 mouse assessed as signs of intolerance by measuring change in posture upto 100 mg/kg, gavage twice daily measured after 7 days; assay type: organism-based; conditions: in vivo, po, 168 h, time 7 day
[10] = Toxicity in C57BL/6 mouse assessed as signs of intolerance by measuring change in vocalization upto 100 mg/kg, gavage twice daily measured after 7 days; assay type: organism-based; conditions: in vivo, po, 168 h, time 7 day
[11] = Toxicity in C57BL/6 mouse assessed as signs of intolerance by measuring ease of handling upto 100 mg/kg, gavage twice daily measured after 7 days; assay type: organism-based; conditions: in vivo, po, 168 h, time 7 day
[12] = Toxicity in C57BL/6 mouse assessed as signs of intolerance by measuring change in lacrimation upto 100 mg/kg, gavage twice daily measured after 7 days; assay type: organism-based; conditions: in vivo, po, 168 h, time 7 day
[13] = Toxicity in C57BL/6 mouse assessed as signs of intolerance by measuring chromo-dacryorrhea upto 100 mg/kg, gavage twice daily measured after 7 days; assay type: organism-based; conditions: in vivo, po, 168 h, time 7 day
[14] = Toxicity in C57BL/6 mouse assessed as signs of intolerance by measuring change in salivation upto 100 mg/kg, gavage twice daily measured after 7 days; assay type: organism-based; conditions: in vivo, po, 168 h, time 7 day
[15] = Toxicity in C57BL/6 mouse assessed as signs of intolerance by measuring change in intact fur/coat upto 100 mg/kg, gavage twice daily measured after 7 days; assay type: organism-based; conditions: in vivo, po, 168 h, time 7 day
[16] = Toxicity in C57BL/6 mouse assessed as signs of intolerance by measuring change in arousal upto 100 mg/kg, gavage twice daily measured after 7 days; assay type: organism-based; conditions: in vivo, po, 168 h, time 7 day
[17] = Toxicity in C57BL/6 mouse assessed as signs of intolerance by measuring change in piloerection upto 100 mg/kg, gavage twice daily measured after 7 days; assay type: organism-based; conditions: in vivo, po, 168 h, time 7 day
[18] = Toxicity in C57BL/6 mouse assessed as signs of intolerance by measuring change in normal motor movements upto 100 mg/kg, gavage twice daily measured after 7 days; assay type: organism-based; conditions: in vivo, po, 168 h, time 7 day
[19] = Toxicity in C57BL/6 mouse assessed as signs of intolerance by measuring tail pinch upto 100 mg/kg, gavage twice daily measured after 7 days; assay type: organism-based; conditions: in vivo, po, 168 h, time 7 day
[20] = Toxicity in C57BL/6 mouse assessed as signs of intolerance by measuring diarrhoea upto 100 mg/kg, gavage twice daily measured after 7 days; assay type: organism-based; conditions: in vivo, po, 168 h, time 7 day
[21] = Toxicity in C57BL/6 mouse assessed as maximum tolerated dose administered through gavage twice daily measured after 7 days; conditions: in vivo, po, time 7 day
MC-38 = experiment: Anticancer activity against mouse MC38 cells subcutaneously implanted in C57BI/6N mouse assessed as tumour growth inhibition at 100 mg/kg, po once daily for 3 weeks; assay type: functional; conditions: read-out: TGI

Cc1nc(Nc2ncc(C(=O)Nc3c(Cl)csc3Cl)s2)cc(N2CCN(CCO)CC2)n1
Drug uptake(free) [1]: 43 nM
Drug uptake(free) [2]: 5 nM

Cc1nc(Nc2ncc(C(=O)Nc3ncccc3C)s2)cc(N2CCN(CCO)CC2)n1
CLint [3]: 38 µL/min/mg

Cc1nc(Nc2ncc(C(=O)Nc3c(Cl)csc3C)s2)cc(N2CCN(CCO)CC2)n1
Drug uptake(free) [1]: 80 nM
Drug uptake(free) [2]: 4 nM

Cc1nc(Nc2ncc(C(=O)Nc3c(C)cccc3Cl)s2)cc(N2CCN(CCO)CC2)n1.O [DASATINIB]
inhibition at 10 µM (hERG (KCNH2)): 36%
Drug uptake(free) [1]: 30 nM
Activity (K562): Active
Activity [4]: Non-Toxic

Cc1nc(Nc2ncc(C(=O)Nc3c(C)csc3Cl)s2)cc(N2CCN(C)CC2)n1
Drug uptake(free) [1]: 44 nM
Drug uptake(free) [2]: 8 nM

Cc1nc(Nc2ncc(C(=O)Nc3c(C)csc3Cl)s2)cc(N2CCN(CCO)CC2)n1
%AUCextra [5]: 5.81%
%AUCextra [6]: 5.81%
Drug uptake(free) [1]: 32 nM
Drug uptake(free) [7]: 3 nM
Drug uptake(free) [8]: 0.1 nM
Activity [9]: Non-Toxic
Activity [10]: Non-Toxic
Activity [11]: Non-Toxic
Activity [12]: Non-Toxic
Activity [13]: Non-Toxic
Activity [14]: Non-Toxic
Activity [15]: Non-Toxic
Activity [16]: Non-Toxic
Activity [17]: Non-Toxic
Activity [18]: Non-Toxic
Activity [19]: Non-Toxic
Activity [20]: Non-Toxic
MTD at 168 h [21]: ≤ 100 mg/kg
inhibition in vivo at 100 mg/kg (MC-38): 38%
Activity [4]: Non-Toxic
